Results as given in US20060270638A1 (Wyeth, priority 2005, published 2006).
“Also recorded” adds a separate entry of the source.

Columns and labels:
[1] = for plasma concentrations following tigecycline coadministration: versus warfarin 25 mg alone, FIG. 1, FIG. 2; for increase of exposure (AUC): warfarin given with a therapeutic regimen of tigecycline
Experimental: (§1) This is an open-label, nonrandomized, inpatient/outpatient, 2-period, 2-treatment study performed with healthy subjects at a single investigational site.
The tubes are centrifuged within 15 minutes of collection at approximately 1000 g for about 10 minutes. The separated plasma is then transferred to a watertight, labeled polypropylene tube and stored frozen in an upright position at −70° C. or colder until shipped.
The apparent terminal-phase disposition rate constant (λz) is estimated by a log-linear regression of the last 2 to 5 observed serum concentrations that are determined to be in the log-linear elimination phase by visual inspection. […] The area under the concentration-time curve (AUCT) to the last observable concentration (CT) at time T is calculated by using the log-trapezoidal rule for decreasing concentrations and the linear-trapezoidal rule for increasing concentrations, and the total AUC is estimated by AUC=AUCT+CT/λz. The oral-dose clearance (Cl/F) is calculated as dose/AUC, and the apparent terminal-phase volume of distribution (Vz/F) is estimated as Vz/F═[Cl/F]/λz.

[2] = Safety in healthy subjects of the drug interaction study; type: in vivo, human (healthy subjects); conditions: single 25-mg oral warfarin alone, multiple 50-mg IV tigecycline, and combined
Excerpt: as §1

[3] = Tigecycline steady-state serum pharmacokinetics, alone and with warfarin; type: in vivo, human (healthy subjects)
Experimental: Blood tubes for tigecycline analysis are placed immediately on ice until a clot forms.
Thus, the peak concentration (Cmax) and the time to peak concentration (tmax) are taken directly from the observed data. […] Systemic clearance (Cl) is calculated as dose/AUC, and it is presented both corrected and uncorrected for body weight.

[4] = tested on: international normalized ratio (INR); conditions: in vivo; cited from earlier work
[5] = single 25-mg oral dose of warfarin, Mean ± SD
[6] = combination versus warfarin alone

CC(=O)CC(c1ccccc1)c1c(O)c2ccccc2oc1=O (racemic) [Warfarin, 3-(α-acetonylbenzyl)-4-hydroxycoumarin]
R-warfarin AUC ([1]; human, in vivo, po): 73000 ± 18000 ng·h/mL
R-warfarin Cl/F ([1]; human, in vivo, po): 0.0717 ± 0.013 mL/min/kg
S-warfarin AUC ([1]; human, in vivo, po): 47000 ± 18000 ng·h/mL
S-warfarin Cl/F ([1]; human, in vivo, po): 0.117 ± 0.0317 mL/min/kg
INR AUC0-[…] (prothrombin time (INR); [5]): 216 ± 14 h
INRmax (prothrombin time (INR); [5]): 1.8 ± 0.3
tmax (time to maximum INR value) (prothrombin time (INR); [5]): 1800 ± 540 min
safety-related concerns [2]: No safety-related concerns

CC(=O)C[C@H](c1ccccc1)c1c(O)c2ccccc2oc1=O [R-warfarin]
plasma concentrations following tigecycline coadministration [1]: higher
increase of exposure (AUC) [1]: 68%

CC(=O)C[C@@H](c1ccccc1)c1c(O)c2ccccc2oc1=O [S-warfarin]
plasma concentrations following tigecycline coadministration [1]: higher
increase of exposure (AUC) [1]: 29%

CN(C)c1cc(NC(=O)CNC(C)(C)C)c(O)c2c1C[C@H]1C[C@H]3[C@H](N(C)C)C(O)=C(C(N)=O)C(=O)[C@@]3(O)C(O)=C1C2=O [Tigecycline, (4S,4aS,5aR,12aS)-9-[2-(tert-butylamino)acetamido]-4,7-bis(dimethylamino)-1,4,4a,5,5a,6,11,12a-octahydro-3,10,12,12a-tetrahydroxy-1,11-dioxo-2-naphthacenecarboxamide]
effect on oral-dose clearance of R-warfarin and S-warfarin ([1]; coadministration of the therapeutic regimen of tigecycline): significantly decreased
mean steady-state systemic clearance and exposure (Cmax, C12h, AUC) versus monotherapy mean values ([3]; following coadministration of warfarin): ≤ 10%
Tmax ([3]; human, intravenous, 50 mg, tigecycline in serum, steady state, Mean ± SD): 30 min
AUC(0-t) ([3]; human, intravenous, 50 mg, tigecycline in serum, steady state, Mean ± SD, read-out: AUC0-12 h): 2100 ± 514 ng·h/mL
concentration at 12 h ([3]; human, intravenous, 50 mg, tigecycline in serum, steady state, Mean ± SD, read-out: C12 h): 109 ± 28 ng/mL
Cmax ([3]; human, tigecycline in serum, steady state, 50 mg IV every 12 h, Mean ± SD): 886 ± 202 ng/mL
systemic clearance ([3]; tigecycline intravenous clearance, steady state, Mean ± SD): 5.17 ± 1.2 mL/min/kg
mean INR AUC0-[…] following the combination treatment (prothrombin time (INR); [6]): unchanged
mean INRmax lower following the combination treatment (prothrombin time (INR); [6]): 10%
effect on warfarin's anticoagulant profile (measured by INR) (prothrombin time (INR); therapeutic regimen of tigecycline with warfarin): does not significantly alter; also recorded: did not significantly alter
safety-related concerns [2]: No safety-related concerns

CN(C)c1ccc(O)c2c1C[C@H]1C[C@H]3[C@H](N(C)C)C(O)=C(C(N)=O)C(=O)[C@@]3(O)C(O)=C1C2=O [minocycline]
compatibility with warfarin [4]: demonstrated incompatibility
